{"source": "paper PMC7377239", "about": "“Cardiovascular Effects of Polychlorinated Biphenyls and Their Major Metabolites” (Environmental Health Perspectives, 2020)", "key": {"HUVECs": {"test_system": "HUVECs", "experiment": "Tube formation (tubulogenesis) assay in HUVECs, 18 h", "assay_type": "cell-based, human", "conditions": "Homo sapiens, HUVEC, 18 h; for activity at 0.1 µM: 0.10 µM", "in_short": "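HUVECs (passage 1–5) seeded on reduced-growth-factor basement membrane and exposed to compounds overnight at 37°C, 5% CO2, in 2× maintenance medium with 12.5 ng/mL VEGF; 0.5% DMSO vehicle. Calcein AM-stained tube networks imaged and analysed; vehicle-normalized readouts fit to four-parameter logistic, POD set at one SD of vehicle means.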"}, "[1]": {"test_system": "iCell endothelial cells (human iPSC-derived ECs)", "experiment": "High-content imaging cytotoxicity in iCell endothelial cells, 24 h", "assay_type": "cell-based", "conditions": "Homo sapiens, Endothelial cell, 24 hr; for viability at 0.1 µM / activity at 0.1 µM: 0.10 µM", "in_short": "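Readouts were vehicle-normalised and fitted to a four-parameter logistic model. POD was set at one SD beyond 0.5% DMSO control means, and 100 µM was assigned when no response was seen. Cells were monolayers of iCell endothelial cells imaged after 24 h compound exposure using nuclear, mitochondrial and calcein dyes.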"}, "[2]": {"conditions": "HUVECs, 0.00 µM = 100.00, read-out: huvec.mtl.18hr"}, "[3]": {"conditions": "HUVECs, 0.00 µM = 100.00, read-out: huvec.tlps.18hr"}, "[4]": {"conditions": "HUVECs, 0.00 µM = 100.00, read-out: huvec.tta.18hr"}, "[5]": {"conditions": "HUVECs, 0.00 µM = 100.00, read-out: huvec.ttl.18hr"}, "[6]": {"conditions": "iPSC-EC, 0.00 µM control = 100.00, read-out: endo.cyto.24hr"}, "[7]": {"conditions": "iPSC-EC, 0.00 µM control = 100.00, read-out: endo.mito.24hr"}, "[8]": {"conditions": "iPSC-EC, 0.00 µM control = 100.00, read-out: endo.mitoint.24hr"}, "[9]": {"conditions": "iPSC-EC, 0.00 µM control = 100.00, read-out: endo.nma.24hr"}, "[10]": {"conditions": "iPSC-EC, 0.00 µM control = 100.00, read-out: endo.tc.24hrs"}}, "note": "Counter-ions that a name gives are not always drawn. Like-named read-outs stand apart in the source and are kept apart here."}
{"compound": "Oc1cccc(-c2ccc(Cl)cc2)c1", "note": "[3'-OH PCB3]", "values": [{"measurement": "activity at 0.01 µM", "setting": "HUVECs; [2]", "result": 96.9, "unit": "%"}, {"measurement": "activity at 0.01 µM", "setting": "HUVECs; [3]", "result": 88.1, "unit": "%"}, {"measurement": "activity at 0.01 µM", "setting": "HUVECs; [4]", "result": 90.6, "unit": "%"}, {"measurement": "activity at 0.01 µM", "setting": "HUVECs; [5]", "result": 92, "unit": "%"}, {"measurement": "activity at 0.1 µM", "setting": "HUVECs; [2]", "result": 102, "unit": "%"}, {"measurement": "activity at 0.1 µM", "setting": "HUVECs; [3]", "result": 83.7, "unit": "%"}, {"measurement": "activity at 0.1 µM", "setting": "HUVECs; [4]", "result": 124, "unit": "%"}, {"measurement": "activity at 0.1 µM", "setting": "HUVECs; [5]", "result": 127, "unit": "%"}, {"measurement": "activity at 1 µM", "setting": "HUVECs; [2]", "result": 93, "unit": "%"}, {"measurement": "activity at 1 µM", "setting": "HUVECs; [3]", "result": 89.2, "unit": "%"}, {"measurement": "activity at 1 µM", "setting": "HUVECs; [4]", "result": 91.7, "unit": "%"}, {"measurement": "activity at 1 µM", "setting": "HUVECs; [5]", "result": 95.4, "unit": "%"}, {"measurement": "activity at 10 µM", "setting": "HUVECs; [2]", "result": 70.2, "unit": "%"}, {"measurement": "activity at 10 µM", "setting": "HUVECs; [3]", "result": 66.1, "unit": "%"}, {"measurement": "activity at 10 µM", "setting": "HUVECs; [4]", "result": 58.6, "unit": "%"}, {"measurement": "activity at 10 µM", "setting": "HUVECs; [5]", "result": 61.5, "unit": "%"}, {"measurement": "activity at 100 µM", "setting": "HUVECs; [2]", "result": 72.3, "unit": "%"}, {"measurement": "activity at 100 µM", "setting": "HUVECs; [3]", "result": 25.9, "unit": "%"}, {"measurement": "activity at 100 µM", "setting": "HUVECs; [4]", "result": 17.3, "unit": "%"}, {"measurement": "activity at 100 µM", "setting": "HUVECs; [5]", "result": 15.5, "unit": "%"}, {"measurement": "minimal effective concentration", "setting": "HUVECs; HUVECs, top concentration 100.00 µM, read-out: huvec.mtl.18hr POD", "result": 1.14, "unit": "µM"}, {"measurement": "minimal effective concentration", "setting": "HUVECs; HUVECs, top concentration 100.00 µM, read-out: huvec.tlps.18hr POD", "result": 1.01, "unit": "µM"}, {"measurement": "minimal effective concentration", "setting": "HUVECs; HUVECs, top concentration 100.00 µM, read-out: huvec.tta.18hr POD", "result": 3.65, "unit": "µM"}, {"measurement": "minimal effective concentration", "setting": "HUVECs; HUVECs, top concentration 100.00 µM, read-out: huvec.ttl.18hr POD", "result": 3.26, "unit": "µM"}, {"measurement": "viability at 0.01 µM", "setting": "[1]; [6]", "result": 93.4, "unit": "%"}, {"measurement": "activity at 0.01 µM", "setting": "[1]; [7]", "result": 93.6, "unit": "%"}, {"measurement": "activity at 0.01 µM", "setting": "[1]; [8]", "result": 123, "unit": "%"}, {"measurement": "activity at 0.01 µM", "setting": "[1]; [9]", "result": 101, "unit": "%"}, {"measurement": "viability at 0.01 µM", "setting": "[1]; [10]", "result": 93.4, "unit": "%"}, {"measurement": "viability at 0.1 µM", "setting": "[1]; [6]", "result": 99.8, "unit": "%"}, {"measurement": "activity at 0.1 µM", "setting": "[1]; [7]", "result": 100, "unit": "%"}, {"measurement": "activity at 0.1 µM", "setting": "[1]; [8]", "result": 111, "unit": "%"}, {"measurement": "activity at 0.1 µM", "setting": "[1]; [9]", "result": 97.6, "unit": "%"}, {"measurement": "viability at 0.1 µM", "setting": "[1]; [10]", "result": 99.8, "unit": "%"}, {"measurement": "viability at 1 µM", "setting": "[1]; [6]", "result": 98.9, "unit": "%"}, {"measurement": "activity at 1 µM", "setting": "[1]; [7]", "result": 99.4, "unit": "%"}, {"measurement": "activity at 1 µM", "setting": "[1]; [8]", "result": 118, "unit": "%"}, {"measurement": "activity at 1 µM", "setting": "[1]; [9]", "result": 97.4, "unit": "%"}, {"measurement": "viability at 1 µM", "setting": "[1]; [10]", "result": 98.9, "unit": "%"}, {"measurement": "viability at 10 µM", "setting": "[1]; [6]", "result": 102, "unit": "%"}, {"measurement": "activity at 10 µM", "setting": "[1]; [7]", "result": 102, "unit": "%"}, {"measurement": "activity at 10 µM", "setting": "[1]; [8]", "result": 129, "unit": "%"}, {"measurement": "activity at 10 µM", "setting": "[1]; [9]", "result": 98.3, "unit": "%"}, {"measurement": "viability at 10 µM", "setting": "[1]; [10]", "result": 102, "unit": "%"}, {"measurement": "viability at 100 µM", "setting": "[1]; [6]", "result": 45.2, "unit": "%"}, {"measurement": "activity at 100 µM", "setting": "[1]; [7]", "result": 58, "unit": "%"}, {"measurement": "activity at 100 µM", "setting": "[1]; [8]", "result": 98.4, "unit": "%"}, {"measurement": "activity at 100 µM", "setting": "[1]; [9]", "result": 90.1, "unit": "%"}, {"measurement": "viability at 100 µM", "setting": "[1]; [10]", "result": 79.2, "unit": "%"}, {"measurement": "minimal effective concentration", "setting": "[1]; iPSC-EC, top concentration 100.00 µM, read-out: endo.cyto.24hr POD", "result": 45.8, "unit": "µM"}, {"measurement": "minimal effective concentration", "setting": "[1]; iPSC-EC, top concentration 100.00 µM, read-out: endo.mito.24hr POD", "result": 45.8, "unit": "µM"}, {"measurement": "minimal effective concentration", "setting": "[1]; iPSC-EC, top concentration 100.00 µM, read-out: endo.mitoint.24hr POD", "result": 100, "unit": "µM"}, {"measurement": "minimal effective concentration", "setting": "[1]; iPSC-EC, top concentration 100.00 µM, read-out: endo.nma.24hr POD", "result": 9.75, "unit": "µM"}, {"measurement": "minimal effective concentration", "setting": "[1]; iPSC-EC, top concentration 100.00 µM, read-out: endo.tc.24hrs POD", "result": 53.2, "unit": "µM"}]}
{"compound": "O=S(=O)(O)Oc1cc(-c2ccccc2)ccc1Cl", "note": "[3-PCB 3 sulfate]", "values": [{"measurement": "minimal effective concentration", "setting": "HUVECs; tube formation mtl, read-out: POD huvec.mtl.18hr", "result": 11.5, "unit": "µM"}, {"measurement": "minimal effective concentration", "setting": "HUVECs; tube formation tlps, read-out: POD huvec.tlps.18hr", "result": 65.8, "unit": "µM"}, {"measurement": "minimal effective concentration", "setting": "HUVECs; tube formation tta, read-out: POD huvec.tta.18hr", "result": 100, "unit": "µM"}, {"measurement": "minimal effective concentration", "setting": "HUVECs; tube formation ttl, read-out: POD huvec.ttl.18hr", "result": 52.1, "unit": "µM"}, {"measurement": "minimal effective concentration", "setting": "[1]; endothelial cells (endo), cyto, read-out: POD endo.cyto.24hr", "result": 100, "unit": "µM"}, {"measurement": "minimal effective concentration", "setting": "[1]; endothelial cells (endo), mito, read-out: POD endo.mito.24hr", "result": 100, "unit": "µM"}, {"measurement": "minimal effective concentration", "setting": "[1]; endothelial cells (endo), mitoint, read-out: POD endo.mitoint.24hr", "result": 100, "unit": "µM"}, {"measurement": "minimal effective concentration", "setting": "[1]; endothelial cells (endo), nma, read-out: POD endo.nma.24hr", "result": 100, "unit": "µM"}, {"measurement": "minimal effective concentration", "setting": "[1]; endothelial cells (endo), tc, read-out: POD endo.tc.24hr", "result": 100, "unit": "µM"}]}
